A word on the thermodynamic solubility: it is the concentration in solution at equilibrium with solid.

Structures are written as SMILES. ≈ marks a conversion by molar mass, not a printed value. Where two headings read alike, the source gives them in different places.

One data set has as its system E. coli UTI89. In words: 24-h thigh muscle infection model in neutropenic CD-1 mice. The data set is classed as in vivo, Escherichia coli. As to conditions: for Log10 (group geometric mean ± SD CFU/g): n = 5 to 8. Here is the method: (§1) Using a screening-based strategy, preliminary proof-of-concept studies with V-r employed an abbreviated 9-h thigh muscle infection model in male CD-1 mice rendered neutropenic ([21]). To that end, an E. coli ATCC 25922 isolate was inoculated at 9.7 × 10^4 CFU into both thigh muscles per mouse (n = 5 per experimental group). V-r was administered s.c. every 2 h (110 to 880 mg/kg total dose) starting 1 h postinfection. At 9 h, thigh homogenates were prepared, and CFU were enumerated after culture on CLED (cystine-, lactose-, and electrolyte-deficient) agar. […] In a 24-h thigh muscle infection model, E. coli UTI89 was inoculated at 7.8 × 10^4 CFU into one thigh muscle per mouse (n = 5 to 8 per group) and treated with V-r (total dose, 200 to […]) using an every-6-h dosing regimen from 1 h postinfection. […] Overall, V-r caused an ∼4 to 7.5 log10 reduction in bacterial burden, compared with vehicle control, over the entire dose range.

A short description of data set [1]: Plasma pharmacokinetics after s.c. administration. More on the design: species or system CD-1 mice. As to conditions: mouse, in vivo, sc. Here is the method:
Plasma pharmacokinetics (PK) of V-r after subcutaneous (s.c.) administration (20 and 121 mg/kg) was determined in naive male CD-1 mice (n = 3/group) using liquid chromatography-tandem mass spectrometry for analysis with a lower limit of quantitation of 5 ng/ml (Table 3).

Data set [2] is described as follows: Thermodynamic solubility in saline.
In another data set the test system is S. agalactiae. The data set can be described thus: MIC determination in alignment with CLSI guidelines. The class given is cell-based. As to conditions: Streptococcus agalactiae.
A further data set concerns S. pneumoniae. Described as above. The data set is classed as cell-based. As to conditions: Streptococcus pneumoniae.
A short description of data set [3]: Plasma protein binding, mouse. The data set is classed as in vitro ADME.
The subject of a further data set is human erythrocytes. In words: Red blood cell lysis. The conditions noted are these: fetal bovine serum-deficient media. From the text:
(§2) Identity was confirmed by ^1H nuclear magnetic resonance and time of flight mass spectrometry, and HCl content was quantified by ion-exchange chromatography.

The subject of another data set is HepG2. In words: HepG2 cell cytotoxicity. The conditions noted are these: fetal bovine serum-deficient media.
Excerpt: as §2

For data set [4], the system named is human renal proximal tubular epithelial cells. In words: hRPTEC biomarkers cytotoxicity. The conditions noted are these: primary hRPTEC; cell count, nuclear size, DNA structure, mitochondrial mass, mitochondrial membrane potential, phospholipidosis, glutathione content; fetal bovine serum-deficient media.
Excerpt: as §2

The next data set deals with E. coli ATCC 25922. In words: 9-h thigh muscle infection model in neutropenic CD-1 mice. The class given is in vivo, Escherichia coli. Here is the method: as §1
In data set [5] the test system is A. baumannii.
The nature of data set [6]: Plasma protein binding, human.
In a further data set the test system is E. coli. The data set can be described thus: microbe, parasite or virus in culture. As to conditions: Escherichia coli.
Data set [7] concerns A. baumannii. In words: microbe, parasite or virus in culture. The conditions noted are these: Acinetobacter baumannii.
[8] abbreviates: total dose over 24 h 1,272 mg/kg.

`O=C(O)c1cn(C2CC2)c2cc(N3CCNCC3)c(F)cc2c1=O` [Ciprofloxacin] returned a Reduction from stasis with E. coli UTI89 (24-h model, ciprofloxacin group of Table 5 (20 mg/kg total)) of 1.4 log10. Also, in the data set on E. coli UTI89 (total dose over 24 h 20 mg/kg), the “Log10 change from vehicle (CFU/g)” value is reported as −6.39 log10 CFU/g and the “Log10 (group geometric mean ± SD CFU/g)” value was determined as 3.32 ± 0.14 log10 CFU/g.

In data set [1] (20 mg/kg), `CN[C@H](CC(C)C)C(=O)N[C@H]1C(=O)N[C@@H](CC(N)=O)C(=O)N[C@H]2C(=O)N[C@H]3C(=O)N[C@H](C(=O)N[C@H](C(=O)N[C@H](CCCNC(=N)N)C(N)=O)c4cc(O)cc(O)c4-c4cc3ccc4O)[C@H](O)c3ccc(c(Cl)c3)Oc3cc2cc(c3O[C@@H]2O[C@H](CO)[C@@H](O)[C@H](O)[C@H]2O[C@H]2C[C@](C)(N)[C@H](O)[C@H](C)O2)Oc2ccc(cc2Cl)[C@H]1O` [V-r] returned a Clearance of 7.8 mL/min/kg and a Vd of 0.59 L/kg. In [1] (121 mg/kg), the Clearance is 5.4 mL/min/kg and the Vd stood at 0.60 L/kg. In data set [2] (saline or isotonic, thermodynamic from solid), this molecule yielded a thermodynamic solubility of 373 mg/mL (≈ 232000 µM).

`CN[C@H](CC(C)C)C(=O)N[C@H]1C(=O)N[C@@H](CC(N)=O)C(=O)N[C@H]2C(=O)N[C@H]3C(=O)N[C@H](C(=O)N[C@H](C(=O)O)c4cc(O)cc(O)c4-c4cc3ccc4O)[C@H](O)c3ccc(c(Cl)c3)Oc3cc2cc(c3O[C@@H]2O[C@H](CO)[C@@H](O)[C@H](O)[C@H]2O[C@H]2C[C@](C)(N)[C@H](O)[C@H](C)O2)Oc2ccc(cc2Cl)[C@H]1O` [Vancomycin]: the MIC turned out to be 0.5 µg/mL (≈ 0.345 µM) with S. agalactiae (strain B057, clinical isolate (northwest UK)); 1 µg/mL (≈ 0.69 µM) with S. agalactiae (strain B063, clinical isolate (northwest UK)); 0.5 µg/mL (≈ 0.345 µM) against S. pneumoniae; 0.5 µg/mL (≈ 0.345 µM) against S. pneumoniae (ATCC49619); 128 µg/mL (≈ 88.3 µM) in the data set on A. baumannii [5] (strain B803, clinical isolate (UK) 2016); 128 µg/mL (≈ 88.3 µM) with A. baumannii [5] (strain GS2AB1, multiresistant clinical isolate (southern Europe) 2017). Further, the MIC with A. baumannii [5] (strain Naval-81, clinical isolate (USA) 2006) turned out to be 128 µg/mL (≈ 88.3 µM); against E. coli (ATCC25922, strain ATCC 25922, CLSI susceptible reference strain), 128 µg/mL (≈ 88.3 µM); in the data set on E. coli (ATCCBAA2340, strain ATCC BAA-2340, blaKPC, Ambler A), 128 µg/mL (≈ 88.3 µM); against E. coli (ATCCBAA2469, strain ATCC BAA-2469, blaNDM-1, Ambler B), 128 µg/mL (≈ 88.3 µM); with E. coli (BW25113, strain BW25113, parent strain of BW25113ΔacrB::kan mutant), 128 µg/mL (≈ 88.3 µM); against E. coli (NCTC13441, strain NCTC 13441, uropathogenic ST131, blaCTX-M-15, blaOXA-1, blaTEM-1, Ambler A, D), 128 µg/mL (≈ 88.3 µM). The MIC was 128 µg/mL (≈ 88.3 µM) in the data set on E. coli (NCTC13462, strain NCTC 13462, blaCTX-M-2, Ambler A); 64 µg/mL (≈ 44.2 µM) with E. coli (NCTC13846, strain NCTC 13846, clinical isolate, bacteremia, mcr-1); 64 to 256 µg/mL (≈ 44.2 to 177 µM) with E. coli (read-out: MICs, all E. coli and A. baumannii strains tested); 128 µg/mL (≈ 88.3 µM) against E. coli (strain AR055, blaNDM-1, blaCMY-6, blaOXA-1, Ambler B, C, D); 128 µg/mL (≈ 88.3 µM) in the data set with E. coli (strain AR089, blaCMY-2, Ambler C); 256 µg/mL (≈ 177 µM) in the data set on E. coli (strain AR0114, blaTEM-1B, blaKPC-3, Ambler A). The MIC with E. coli (strain AR0137, blaNDM-6, blaOXA-9, blaCMY-42, blaCTX-M-15, Ambler B) was determined as 128 µg/mL (≈ 88.3 µM); in the data set with E. coli (strain AR0150, blaNDM-5, blaTEM-1B, blaCMY-42, Ambler A, B, C), 128 µg/mL (≈ 88.3 µM); in the data set on E. coli (strain AR0346, mcr-1, ESBL, Ambler A) it was 256 µg/mL (≈ 177 µM); against E. coli (strain AR0349, mcr-1, ESBL, Ambler A), 128 µg/mL (≈ 88.3 µM); against E. coli (strain AR0350, mcr-1), 128 µg/mL (≈ 88.3 µM); in the data set with E. coli (strain AR0493, mcr-1, ESBL, Ambler A) it was 256 µg/mL (≈ 177 µM). Also, the MIC was found to be 128 µg/mL (≈ 88.3 µM) against E. coli (strain AR0494, mcr-1); 128 µg/mL (≈ 88.3 µM) with E. coli (strain B096a, clinical isolate (UK) 2016, AmpC, Ambler C); 256 µg/mL (≈ 177 µM) with E. coli (strain B808, clinical isolate (UK) 2016, blaTEM-1, blaCTX-M-15, Ambler A); 128 µg/mL (≈ 88.3 µM) with E. coli (strain ExPEC H5, clinical isolate (UK)); 256 µg/mL (≈ 177 µM) with E. coli (strain H4/5, clinical isolate, blaTEM-1, blaCTX-M-15, Ambler A); 128 µg/mL (≈ 88.3 µM) against E. coli (strain IR3, clinical isolate, blaNDM-1, Ambler B). For the same molecule, the MIC in the data set with E. coli (strain IR45, clinical isolate, blaNDM-1, Ambler B) is 128 µg/mL (≈ 88.3 µM); in the data set on E. coli (strain IR57, clinical isolate, blaNDM-1, Ambler B), 256 µg/mL (≈ 177 µM); against E. coli (strain JW0451-2, BW25113ΔacrB::kan, AcrB-deficient efflux pump mutant), 128 µg/mL (≈ 88.3 µM); with E. coli (strain Swiss 2 (AF45), clinical isolate (South Africa) ST101, mcr-1), 128 µg/mL (≈ 88.3 µM); in the data set on E. coli (strain Swiss 13, clinical isolate (France) ST69, mcr-1), 128 µg/mL (≈ 88.3 µM); in the data set on E. coli (strain Swiss 15, clinical isolate (Switzerland) ST446, mcr-1, blaCTX-M, Ambler A) it was 128 µg/mL (≈ 88.3 µM). For the same molecule, the MIC with E. coli (strain UTI89, clinical isolate from patient with acute bladder infection) was 128 µg/mL (≈ 88.3 µM); in the data set on A. baumannii [7], 128 µg/mL (≈ 88.3 µM). For the same molecule, the “PPB (mouse % bound)” value in [3] is reported as 50/50 % bound. The “Red blood cell lysis (CC50)” value in the data set on human erythrocytes is greater than 750 µM. Moreover, in the data set with HepG2, the “HepG2 cell cytotoxicity (CC50)” value was greater than 750 µM. For the same molecule, the “hRPTEC biomarkers (CC50)” value in [4] is greater than 100 µM. Besides, the “Impact on E. coli burden” value with E. coli ATCC 25922 (dose equivalent to the highest dose of V-r, 9 h) is “failed to significantly impact E. coli burden”. In addition, the “Log10 change from vehicle (CFU/g)” value in the data set on E. coli ATCC 25922 (total dose over 9 h 800 mg/kg) was −0.51 log10 CFU/g; in the data set with E. coli UTI89 (setting [8]), −1.23 log10 CFU/g. The “Log10 (group geometric mean ± SD CFU/g)” value in the data set with E. coli ATCC 25922 (total dose over 9 h 800 mg/kg, n = 5) worked out at 6.60 ± 0.66 log10 CFU/g; in the data set with E. coli UTI89 (setting [8]), 8.48 ± 1.31 log10 CFU/g. The “PPB (human % bound)” value in [6] is listed as 50/50 % bound. Besides, the “TD solubility in saline” value in data set [2] (thermodynamic, in saline) was greater than 50 mg/mL.

The values above are taken from article PMC8097466, “In Vivo Targeting of Escherichia coli with Vancomycin-Arginine” (Antimicrobial Agents and Chemotherapy, 2021).
